{
  "source": "patent US20220002297A1",
  "about": "“POLYMORPHS OF X842” (Cinclus Pharma AG, priority 2020, published 2022)",
  "key": {"intragastric acidity": {"tested_on": "intragastric acidity", "assay_type": "in vivo, human", "experimental": "(§1) X842 is a prodrug of Linaprazan, which was disclosed in WO 99/55706 and previously studied in Phase I and II studies. […] A clinical Phase I study has shown that administration of a single dose of X842 can maintain the intragastric acidity above pH 4 for 24 hours. X842 is therefore tailored for patients with severe erosive gastroesophageal reflux disease (eGERD).\nFollowing absorption into the blood stream, X842 is quickly metabolized into Linaprazan, which is the active metabolite of X842. Whereas the plasma concentration of X842 is only very low and difficult to determine, the plasma concentration of Linaprazan may be determined instead. […] It is estimated that this requires a minimal plasma concentration (Cmin) of Linaprazan of at least about 240 nmol/L after 22 hours. At such doses, a once daily oral administration of the formulation would be sufficient. Therefore, in another aspect, the invention relates to the pharmaceutical composition as disclosed herein, wherein a unit dose of the composition provides a Cmin of Linaprazan in a human of at least about 240 nmol/L after 22 hours following oral administration of the pharmaceutical composition to said human."}, "[1]": {"settings": "Phase I and II studies; cited from earlier work"}, "[2]": {"experiment": "Thermogravimetric analysis (TGA)", "assay_type": "physicochemical", "settings": "for degradation of the sample (temperature): 25 to 320° C., 10° C./minute", "experimental": "Analyses were performed on a Mettler Toledo TGA/DSC1 instrument, coupled with a Thermo Nicolet iS10 spectrometer. The sample was flushed with dry nitrogen gas during the analysis. The sample was scanned from 25 to 320° C. with a scan rate of 10° C./minute.\nDegradation of the sample occurred at approximately 248° C.\nMelting of the sample occurred at approximately 211° C., and degradation of the sample occurred at approximately 251° C."}, "[3]": {"experiment": "Dynamic vapour sorption (DVS) analysis, hygroscopicity", "assay_type": "physicochemical", "experimental": "Analyses were performed on a Surface Measurement Systems DVS Intrinsic instrument. The relative humidity at 25° C. was calibrated against the deliquescense point of LiCL, Mg(NO3)2 and KCl. The sample (about 10-20 mg) was dried with nitrogen gas until a dm/dt below 0.002% per minute was reached. The instrument was running in dm/dt mode using a minimum dm/dt stability duration of 10 minutes and a maximum equilibrium time of 180 minutes. The sample was subjected to a sorption-desorption cycle running from 0 to 95 to 0% RH. One cycle consisted of 20 steps, those between 0 and 90% RH were taken in 10% RH each.\nThe hygroscopicity of Form A was investigated using DVS at 25° C. The water uptake at 25° C./80% RH was about 0.08%, which means that Form A is non-hygroscopic."}, "[4]": {"experiment": "Half-life in the body, X842 compared to Linaprazan", "assay_type": "in vivo", "settings": "in comparison with Linaprazan", "experimental": "as §1"}},
  "data": [
    {"smiles": "Cc1cccc(C)c1CNc1cc(C(=O)NCCO)cn2c(C)c(C)nc12", "note": "[Linaprazan]", "values": [
      {"measurement": "minimal plasma concentration (Cmin) of Linaprazan required to maintain intra-gastric pH above 4 for 24 hours", "setting": "intragastric acidity; human, in vivo, po, 22 h", "result": "at least 240 nmol/L"},
      {"measurement": "elimination from the body", "setting": "[1]", "result": "quickly eliminated"},
      {"measurement": "tolerability", "setting": "[1]", "result": "well tolerated"}
    ]},
    {"smiles": "Cc1cccc(C)c1CNc1cc(C(=O)NCCOC(=O)CCCC(=O)O)cn2c(C)c(C)nc12", "note": "[Form B, 5-{2-[({8-[(2,6-dimethylbenzyl)amino]-2,3-dimethylimidazo[1,2-a]pyridine-6-yl}carbonyl)-amino]ethoxy}-5-oxopentanoic acid]", "values": [
      {"measurement": "degradation of the sample (temperature)", "setting": "[2]", "result": "approximately 251 °C"},
      {"measurement": "weight loss", "setting": "[2]; in the range of 128-220° C., attributed to loss of isopropyl alcohol", "result": "approximately 1%"}
    ]},
    {"smiles": "Cc1cccc(C)c1CNc1cc(C(=O)NCCOC(=O)CCCC(=O)O)cn2c(C)c(C)nc12", "note": "[Form A, 5-{2-[({8-[(2,6-dimethylbenzyl)amino]-2,3-dimethylimidazo[1,2-a]pyridine-6-yl}carbonyl)-amino]ethoxy}-5-oxopentanoic acid]", "values": [
      {"measurement": "hygroscopicity", "setting": "[3]; DVS at 25° C.", "result": "non-hygroscopic"},
      {"measurement": "water uptake", "setting": "[3]; DVS, 25° C./80% RH", "result": "about 0.08%"},
      {"measurement": "change of form after DVS (X-ray powder diffractograms before and after)", "setting": "[3]; sorption-desorption cycle 0 to 95 to 0% RH, 25° C.", "result": "no change of form occurred"},
      {"measurement": "degradation of the sample (temperature)", "setting": "[2]", "result": "approximately 248 °C"},
      {"measurement": "weight loss before melting", "setting": "[2]; before melting at approximately 217° C.", "result": "did not show any weight loss"}
    ]},
    {"smiles": "Cc1cccc(C)c1CNc1cc(C(=O)NCCOC(=O)CCCC(=O)O)cn2c(C)c(C)nc12", "note": "[Form X842, 5-{2-[({8-[(2,6-dimethylbenzyl)amino]-2,3-dimethylimidazo[1,2-a]pyridine-6-yl}carbonyl)-amino]ethoxy}-5-oxopentanoic acid]", "values": [
      {"measurement": "time intragastric pH is maintained above 4", "setting": "intragastric acidity; after administration of X842, Phase I", "result": 24, "unit": "hours"},
      {"measurement": "half-life in the body", "setting": "[4]", "result": "longer"}
    ]}
  ]
}
